In publication PMC7047272 (ACS Central Science, 2020):

Legend:
[1] = target: β2 of mouse 20S constitutive proteasome (CP) (Mus musculus, UniProt P70195); assay type: biochemical; details: at concentrations up to 1 μM
[2] = target: β5i of human 20S immunoproteasome (IP) (Homo sapiens, UniProt P28062); test: Fluorogenic substrate hydrolysis, chymotrypsin-like activity; assay type: biochemical
[3] = target: β2i of human 20S immunoproteasome (IP) (Homo sapiens, UniProt P40306); test: Fluorogenic substrate hydrolysis, trypsin-like activity; assay type: biochemical
[4] = target: β2 of human 20S constitutive proteasome (CP) (Homo sapiens, UniProt Q99436); test: as above; assay type: biochemical
[5] = target: β5 of mouse 20S constitutive proteasome (CP) (Mus musculus, UniProt O55234); test: Fluorogenic substrate hydrolysis, chymotrypsin-like activity; assay type: biochemical
[6] = target: β2i of mouse 20S immunoproteasome (IP) (Mus musculus, UniProt O35955); test: biochemical; assay type: biochemical
[7] = target: β5 of human 20S constitutive proteasome (CP) (Homo sapiens, UniProt P28074); test: Fluorogenic substrate hydrolysis, chymotrypsin-like activity; assay type: biochemical
[8] = target: β1i (LMP2) of mouse 20S immunoproteasome (IP) (Mus musculus, UniProt P28076); test: biochemical
[9] = test system: chymotrypsin-like activity in live LCL721.145 cells (containing immunoproteasome); assay type: cell-based, human; details: MeO-Suc-GLF-AMC, up to 1 μM
[10] = target: β5i of mouse 20S immunoproteasome (IP) (Mus musculus, UniProt P28063); test: biochemical

Row | SMILES | effect on β2 of the constitutive proteasome [1] | IC50 [2] | IC50 [3] | IC50 [4] | IC50 [5] | IC50 [6] | selectivity β2/β2i [6] | IC50 [7] | IC50 [8] | inhibition of chymotrypsin-like activity in live cells (cell permeability) [9] | IC50 [10]
1 | CCCCCCC/C=C/C=C/C(=O)N[C@H](C(=O)N[C@H]1C[C@@H](O)CCNC(=O)/C=C/[C@H](C)NC1=O)[C@@H](C)O [GlbA, glidobactin A] | almost unaffected | 25 nM | 42 nM | 15 nM | 0.65 nM | 1.4 nM | > 714 | 3.6 nM | 250 nM | inactive | 1.1 nM
2 | CCCCCCC/C=C/C=C/C(=O)N[C@H](C(=O)N[C@H]1CCCCNC(=O)/C=C/[C@H](C)NC1=O)[C@@H](C)O [LumA, luminmycin A] |  | 1600 nM | 170 nM | 260 nM | 32 nM |  |  | 39 nM |  | inactive | 8.9 nM
